Results: patent publication US20220331467A1, “HALAL DISINFECTANT LIQUID” (priority 2019, published 2022)

What was measured:
[1] = tested on: guinea pig skin; conditions: female, Slc:Hartley, in vivo
Procedure: To find information related to the skin sensitization of a chlorous acid aqueous solution formulation, a Maximization Test was conducted using 20 female Slc:Hartley guinea pigs (SPF). […] In the test substance treatment group, 0.2 w/v % test substance solution (medium: distilled water) was intradermally injected in the first sensitization treatment using 10 animals, and a closed patch of 100% test substance solution (undiluted solution) was applied for 48 hours in the second sensitization treatment. A closed patch of 20 w/v % test substance solution was applied for 24 hours for elicitation treatment.
The prepared administered solutions (1) to (3) (section 14.9.1) of each test group were intradermally injected at 0.1 mL each to correspond to administration sites (1) to (3) in image 1.
The chest and back (image 1, site (4)) of an animal were shaved using an electric clipper and shaver on day 7. Open patch of 10% sodium dodecyl sulfate mixture (section 14.9.2) was applied thinly and homogeneously at the same site to a test substance treatment group and negative control group. […]
The body weight was measured before starting sensitization treatment (day 0) and the day of completion of observation of elicitation treatment sites (day 25). […]
The skin sensitization rate is calculated as [(number of sensitization positive animals/number of animals used)×100].

[2] = tested on: eye; conditions: OECD TG 405; cited from earlier work
[3] = tested on: rabbit skin; experiment: Skin irritability test using rabbits (OECD 404); assay type: in vivo; conditions: 0.5 mL patch, 4 hours exposure
Procedure: To study the skin irritability and corrosiveness of a chlorous acid aqueous solution formulation, a skin irritability test was conducted using three female Kbl:NZW rabbits. The irritability reaction was compared by setting a three rabbit sodium hypochlorite formulation treatment group as a comparative control group. 0.5 mL of test substance was applied homogenously to a lint patch and exposed 4 hours to the skin on the back of the rabbits. […] In addition, the body weight before administration and at the end of observation was measured.
For administration, 0.5 mL of test substance was spread homogeneously on the lint surface of a 2.45×2.45 cm patch (lint cloth, Hasegawa Menkou) by using a MICROMAN (model M1000, Gilson), and then applied to the back skin of animals using a paper adhesive tape (KENZ). Furthermore, the entire treatment site was covered with a large lint cloth (Hasegawa Menkou), which was secured with an adhesive bandage (New-HALE, Hasegawa Menkou). Exposure time was 4 hours. The patch was removed after completion of exposure. […]
Erythema, eschar formation, and edema at sites of administration were observed 1, 24, 48, and 72 hours after patch removal, and scored in accordance with determination criteria for skin reactions (Draize, 1959). […]
The body weight was measured on the administration date (before administration) and date of completion of observation for all tested animals. […]

| Number of animals showing the sign: General condition, No abnormality observed [1] | Number of positive animal [1] | Structure (SMILES) | Severe injury to eye or eye irritability (GHS category) [2] | GHS hazard category of dermal irritation/corrosion [3] |
| --- | --- | --- | --- | --- |
| 0 | 5 | CCCCCCC(C=O)=Cc1ccccc1 [HCA, α-Hexylcinnamaldehyde] | – | – |
| – | – | OCl [Sodium hypochlorite, sodium hypochlorite] | Category 1 | Category 1 |
| – | – | CCO [Ethanol 95 v/v %, Ethanol] | Category 2B | – |
